We go through 34 compounds from US8546414B2, “Ion channel modulators and methods of use” (Vertex Pharmaceuticals Incorporated, priority 2004, dated 2013).

The target in assay [1] is T1, CaV2.2 (Homo sapiens, UniProt Q00975).
T1 construct: expressed in transfected cells; host or cells: HEK293
Description: VIPR optical membrane potential assay with electrical stimulation, CaV2.2. The format is cell-based. Conditions: Table 9, CaV 2.2 receptors. Here is the method:
A. Optical Methods for Assaying CaV Inhibition Properties of Compounds:
(§1) Antagonist properties of test compounds were assessed as follows. Cells expressing the CaV of interest were placed into microtiter plates. After an incubation period, the cells were stained with fluorescent dyes sensitive to the transmembrane potential. The test compounds were added to the microtiter plate. The cells were stimulated with electrical means to evoke a CaV dependent membrane potential change from unblocked channels, which was detected and measured with trans-membrane potential-sensitive dyes. Antagonists were detected as a decreased membrane potential response to the stimulus.
(§2) VIPR® Optical Membrane Potential Assay Method with Electrical Stimulation
The following is an example of how CaV2.2 inhibition activity is measured using the optical membrane potential method. Other subtypes are performed in an analogous mode in a cell line expressing the CaV of interest.
HEK293 cells stably expressing CaV2.2 are plated into 96-well microtiter plates. After an appropriate incubation period, the cells are stained with the voltage sensitive dyes CC2-DMPE/DiSBAC2(3) as follows.
2X CC2-DMPE=20 μM CC2-DMPE: 10 mM CC2-DMPE is vortexed with an equivalent volume of 10% Pluronic, followed by vortexing in required amount of HBSS containing 10 mM HEPES. Each cell plate will require 5 mL of 2×CC2-DMPE. 50 μL of 2×CC2-DMPE is added to wells containing washed cells, resulting in a 10 μM final staining concentration. The cells are stained for 30 minutes in the dark at RT.
Vortex in required amount of Bath X with beta-cyclodextrin. Each 96 well cell plate will require 5 ml of 2XCC2DMPE. Wash plate with ELx405 with Bath X, leaving a residual volume of 50 μL/well. Add 50 μL of 2XCC2DMPE & […] to each well. Stain for 30 minutes in the dark at RT.
Allow solution to sit for 10 minutes. Slowly mix in 370 mM BaCl2. This solution can be used to solvate compound plates. Note that compound plates are made at 1.5× drug concentration and not the usual 2X. Wash CC2 stained plate, again, leaving residual volume of 50 μL. Add 100 uL/well of the AY17 solution. Stain for 15 minutes in the dark at RT. Run plate on the optical reader.
(§3) The instrument comprises a microtiter plate handler, an optical system for exciting the coumarin dye while simultaneously recording the coumarin and oxonol emissions, a waveform generator, a current- or voltage-controlled amplifier, and a device for inserting electrodes in well. Under integrated computer control, this instrument passes user-programmed electrical stimulus protocols to cells within the wells of the microtiter plate.
Insert or use electrodes into each well to be assayed.
Use the current-controlled amplifier to deliver stimulation wave pulses for 3-5 s. Two seconds of pre-stimulus recording are performed to obtain the un-stimulated intensities. Five seconds of post-stimulation recording are performed to examine the relaxation to the resting state.
(§4) Data are analyzed and reported as normalized ratios of background-subtracted emission intensities measured in the 460 nm and 580 nm channels. Background intensities are then subtracted from each assay channel. Background intensities are obtained by measuring the emission intensities during the same time periods from identically treated assay wells in which there are no cells. The response as a function of time is then reported as the ratios obtained using the following formula: […]
(§5) The data is further reduced by calculating the initial (Ri) and final (Rf) ratios. These are the average ratio values during part or all of the pre-stimulation period, and during sample points during the stimulation period. The response to the stimulus R=Rf/Ri is then calculated.
Control responses are obtained by performing assays in the presence of a compound with the desired properties (positive control), such as mibefradil, and in the absence of pharmacological agents (negative control).

Assay [2] has as its target T2, NaV1.3 (Homo sapiens, UniProt Q9NY46).
T2 construct: expressed in transfected cells; host or cells: HEK293
Put plainly: VIPR optical membrane potential assay with electrical stimulation, NaV1.3. The class given is cell-based. The settings on record: Table 9, NaV 1.3 receptors. On the procedure:
as §1, with “expressing the NaV of interest” for “expressing the CaV of interest”, “stimulated with either chemical or electrical means” for “stimulated with electrical means”, “evoke a NaV dependent membrane” for “evoke a CaV dependent membrane”
as §2
The following is an example of how NaV1.3 inhibition activity is measured using the optical membrane potential method#2. Other subtypes are performed in an analogous mode in a cell line expressing the NaV of interest.
HEK293 cells stably expressing NaV1.3 are plated into 96-well microtiter plates. After an appropriate incubation period, the cells are stained with the voltage sensitive dyes CC2-DMPE/DiSBAC2(3) as follows.
2X CC2-DMPE=20 μM CC2-DMPE: 10 mM CC2-DMPE is vortexed with an equivalent volume of 10% pluronic, followed by vortexing in required amount of HBSS containing 10 mM HEPES. Each cell plate will require 5 mL of 2×CC2-DMPE. 50 μL of 2×CC2-DMPE is added to wells containing washed cells, resulting in a 10 μM final staining concentration. The cells are stained for 30 minutes in the dark at RT.
2X DISBAC2(3) with ABSC1=6 μM DISBAC2(3) and 1 mM ABSC1: The required amount of 10 mM DISBAC2(3) is added to a 50 ml conical tube and mixed with 1 μL 10% pluronic for each mL of solution to be made and vortexed together. Then HBSS/HEPES is added to make up 2× solution. Finally, the ABSC1 is added.
The 2X DiSBAC2(3) solution can be used to solvate compound plates. Note that compound plates are made at 2× drug concentration. Wash stained plate again, leaving residual volume of 50 Add 50 μL/well of the 2X DiSBAC2(3) w/ABSC1. Stain for 30 minutes in the dark at RT.
as §3
• 1. Insert or use electrodes into each well to be assayed. • 2. Use the current-controlled amplifier to deliver stimulation wave pulses for 3 s. Two seconds of pre-stimulus recording are performed to obtain the un-stimulated intensities. Five seconds of post-stimulation recording are performed to examine the relaxation to the resting state. Data Analysis
as §4, §5
Control responses are obtained by performing assays in the presence of a compound with the desired properties (positive control), such as tetracaine, and in the absence of pharmacological agents (negative control). Responses to the negative (N) and positive (P) controls are calculated as above. The compound antagonist activity A is defined as: […]

T2 sequence (Q9NY46 whole entry): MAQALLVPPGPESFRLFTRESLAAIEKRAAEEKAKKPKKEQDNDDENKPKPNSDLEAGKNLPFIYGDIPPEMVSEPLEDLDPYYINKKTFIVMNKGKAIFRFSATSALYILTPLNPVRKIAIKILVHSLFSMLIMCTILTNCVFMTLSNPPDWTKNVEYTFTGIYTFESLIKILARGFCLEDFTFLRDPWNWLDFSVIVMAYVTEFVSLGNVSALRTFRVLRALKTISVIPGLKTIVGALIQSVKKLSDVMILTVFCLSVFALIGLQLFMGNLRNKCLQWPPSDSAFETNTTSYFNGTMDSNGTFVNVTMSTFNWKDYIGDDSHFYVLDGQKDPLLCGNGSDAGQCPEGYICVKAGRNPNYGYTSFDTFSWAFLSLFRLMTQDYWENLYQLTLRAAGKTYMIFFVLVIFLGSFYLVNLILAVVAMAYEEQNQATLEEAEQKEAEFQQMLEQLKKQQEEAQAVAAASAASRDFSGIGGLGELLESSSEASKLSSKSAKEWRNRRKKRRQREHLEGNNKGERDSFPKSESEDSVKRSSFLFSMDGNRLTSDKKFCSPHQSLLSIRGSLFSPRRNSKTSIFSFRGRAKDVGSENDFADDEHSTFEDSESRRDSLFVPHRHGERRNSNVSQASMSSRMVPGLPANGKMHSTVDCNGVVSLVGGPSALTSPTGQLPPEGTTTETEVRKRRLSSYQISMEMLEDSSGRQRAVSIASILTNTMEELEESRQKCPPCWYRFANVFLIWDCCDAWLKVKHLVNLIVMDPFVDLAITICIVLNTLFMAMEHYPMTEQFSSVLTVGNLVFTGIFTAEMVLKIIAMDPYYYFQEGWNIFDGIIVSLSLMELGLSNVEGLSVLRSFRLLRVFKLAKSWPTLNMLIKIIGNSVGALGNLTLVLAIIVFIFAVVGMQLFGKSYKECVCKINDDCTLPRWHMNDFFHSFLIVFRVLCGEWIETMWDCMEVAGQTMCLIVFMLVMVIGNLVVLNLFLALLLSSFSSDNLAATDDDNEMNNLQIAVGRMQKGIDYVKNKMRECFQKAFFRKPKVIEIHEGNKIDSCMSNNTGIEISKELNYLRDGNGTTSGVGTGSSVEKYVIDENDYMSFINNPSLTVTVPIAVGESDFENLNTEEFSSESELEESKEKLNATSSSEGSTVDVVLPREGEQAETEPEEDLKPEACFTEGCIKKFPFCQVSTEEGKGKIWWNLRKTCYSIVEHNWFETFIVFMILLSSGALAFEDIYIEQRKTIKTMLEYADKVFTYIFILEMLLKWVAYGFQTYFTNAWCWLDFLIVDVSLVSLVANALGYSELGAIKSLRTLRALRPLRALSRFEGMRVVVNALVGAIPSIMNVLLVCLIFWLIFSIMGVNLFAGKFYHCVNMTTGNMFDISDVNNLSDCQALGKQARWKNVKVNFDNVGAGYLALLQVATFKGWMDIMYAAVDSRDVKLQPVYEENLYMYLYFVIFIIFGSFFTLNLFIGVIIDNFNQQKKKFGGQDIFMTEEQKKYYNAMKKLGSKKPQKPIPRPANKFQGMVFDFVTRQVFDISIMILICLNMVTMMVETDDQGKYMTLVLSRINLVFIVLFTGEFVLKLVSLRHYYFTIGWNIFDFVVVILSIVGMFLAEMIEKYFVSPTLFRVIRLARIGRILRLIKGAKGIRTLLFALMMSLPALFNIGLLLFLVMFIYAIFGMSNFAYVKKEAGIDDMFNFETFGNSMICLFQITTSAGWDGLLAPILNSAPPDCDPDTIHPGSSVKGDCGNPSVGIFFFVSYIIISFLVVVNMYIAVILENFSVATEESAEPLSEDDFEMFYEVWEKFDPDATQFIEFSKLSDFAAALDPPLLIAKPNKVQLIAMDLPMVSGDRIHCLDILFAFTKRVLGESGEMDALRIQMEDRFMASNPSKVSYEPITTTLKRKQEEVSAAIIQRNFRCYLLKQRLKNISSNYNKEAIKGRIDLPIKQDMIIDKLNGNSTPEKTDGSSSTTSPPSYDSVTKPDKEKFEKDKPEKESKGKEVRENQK

Usually IC50 stands for the point on the concentration scale where inhibition reaches its midpoint. A high value points to weaker potency. Consider `COCCCNc1ncc(C(=O)NCC2CC2)c(-c2ccc(C#N)cc2)n1` [compound 231], for which the IC50 in assay [1] and in assay [2] was > 10 µM throughout.
In the case of `CC(C)N(Cc1ccccc1)C(=O)c1cnc(N2CCOCC2)nc1-c1ccc(C#N)cc1` [compound 232], the IC50 in assay [1] is 2 to 10 µM; in assay [2], > 10 µM.
Consider `CCCCNC(=O)c1cnc(N2CCOCC2)nc1-c1ccccc1F` [compound 233], for which the IC50 in assay [1] and in assay [2] was > 10 µM throughout.
For `Cc1cccc(-c2nc(NCc3cccc(Cl)c3)ncc2C(=O)N(C)CC(C)C)c1` [compound 235], the IC50 in assay [1] and in assay [2] was > 10 µM each time.
Turning to `O=C(c1cnc(NCc2cccc(C(F)(F)F)c2)nc1-c1ccccc1F)N1CCOCC1` [compound 236], the IC50 in assay [1] and in assay [2] was > 10 µM throughout.
Turning to `CCN(Cc1ccccc1)C(=O)c1cnc(N2CCCCC2)nc1-c1ccccc1F` [compound 237], the figures for the IC50 in assay [1] and in assay [2] were 2 to 10 µM and > 10 µM, respectively.
For `CC1CC(C)CN(C(=O)c2cnc(NCc3cccc(Cl)c3)nc2-c2ccc(C#N)cc2)C1` (centres unmarked) [compound 238], in that order: > 10 µM and > 10 µM.
Regarding `CCN(Cc1cccc(C)c1)C(=O)c1cnc(NC2CCCC2)nc1-c1ccc(C#N)cc1` [compound 239], the IC50 in assay [1] was 2 to 10 µM; in assay [2] it was > 10 µM.
On to `Cc1cccc(-c2nc(N3CCOCC3)ncc2C(=O)N(Cc2ccccc2)C(C)C)c1` [compound 240], for which the IC50 in assay [1] and in assay [2] was > 10 µM each time.
Consider `CC1CCN(c2ncc(C(=O)N(C)C3CCCCC3)c(-c3ccc(C#N)cc3)n2)CC1` [compound 241], for which the IC50 in assay [1] and in assay [2] was > 10 µM throughout.
As for `O=C(NCc1ccccc1C(F)(F)F)c1cnc(N2CCOCC2)nc1-c1ccccc1F` [compound 242], the IC50 in assay [1] and in assay [2] was > 10 µM in each case.
With `CCN(Cc1ccccc1)C(=O)c1cnc(N2CCOCC2)nc1-c1cccc(C)c1` [compound 243], the concentration for half-maximal inhibition (IC50) in assay [1] and in assay [2] was > 10 µM throughout.
As for `CCN(Cc1ccccc1)C(=O)c1cnc(NCc2ccc(C)o2)nc1-c1ccc(C#N)cc1` [compound 244], the IC50 in assay [1] and in assay [2] was > 10 µM in each case.
Consider `N#Cc1ccc(-c2nc(NCC3CCCCC3)ncc2C(=O)N2CCCCC2)cc1` [compound 245], for which the IC50 in assay [1] and in assay [2] was > 10 µM throughout.
For the compound `CCN(Cc1cccc(C)c1)C(=O)c1cnc(N(C)CC)nc1-c1ccccc1F` [compound 246], the IC50 in assay [1] was 2 to 10 µM; in assay [2], > 10 µM.
Consider `CCN(Cc1cccc(C)c1)C(=O)c1cnc(N2CCOCC2)nc1-c1ccc(C#N)cc1` [compound 247], for which the IC50 in assay [1] and in assay [2] was > 10 µM each time.
Consider `N#Cc1ccc(-c2nc(NCc3ccccc3C(F)(F)F)ncc2C(=O)NCC2CC2)cc1` [compound 248], for which the IC50 in assay [1] and in assay [2] was > 10 µM in each case.
Consider `CC(=O)NCCNc1ncc(C(=O)N2CCC(C)CC2)c(-c2ccc(-c3ccccc3)cc2)n1` [compound 251], for which the concentration for half-maximal inhibition (IC50) is 2 to 10 µM in assay [1] and > 10 µM in assay [2].
Turning to `O=C(c1cnc(NCc2ccccc2C(F)(F)F)nc1-c1ccccc1F)N1CCOCC1` [compound 252], the IC50 in assay [1] and in assay [2] was > 10 µM in each case.
As to `CCC(C)Nc1ncc(C(=O)NC2CCCCC2C)c(-c2ccccc2F)n1` (centres unmarked) [compound 253], the IC50 in assay [1] and in assay [2] was > 10 µM throughout.
Consider `COc1cccc(OC)c1CNc1ncc(C(=O)N(C)CC(C)C)c(-c2ccccc2F)n1` [compound 255], for which the IC50 in assay [1] and in assay [2] was > 10 µM in each case.
For the compound `COCCNc1ncc(C(=O)N(C)C2CCCCC2)c(-c2ccc(C#N)cc2)n1` [compound 256], the IC50 in assay [1] and in assay [2] was > 10 µM throughout.
Regarding `COCCCNC(=O)c1cnc(NCC2CC2)nc1-c1cccc(C)c1` [compound 257], the IC50 in assay [1] and in assay [2] was > 10 µM in each case.
As to `COCCCNC(=O)c1cnc(NCCc2ccc(OC)cc2)nc1-c1cccc(C)c1` [compound 258], the IC50 in assay [1] and in assay [2] was > 10 µM each time.
For the compound `CCN(Cc1ccccc1)C(=O)c1cnc(N2CCCC(C(N)=O)C2)nc1-c1ccc(C#N)cc1` (centres unmarked) [compound 259], the IC50 in assay [1] and in assay [2] was > 10 µM throughout.
Take `N#Cc1ccc(-c2nc(NCc3ccc4c(c3)OCO4)ncc2C(=O)N2CCCC2)cc1` [compound 260]: the IC50 in assay [1] and in assay [2] was > 10 µM throughout.
Take `Cc1ccc(CNc2ncc(C(=O)N3CCC(C)CC3)c(-c3ccc(C#N)cc3)n2)o1` [compound 261]: the IC50 in assay [1] and in assay [2] was > 10 µM each time.
Take `CCCCNc1ncc(C(=O)N(C)CC(C)C)c(-c2cccc(C)c2)n1` [compound 262]: the half-maximal inhibitory concentration (IC50) in assay [1] and in assay [2] was > 10 µM throughout.
`CC(C)CN(C)C(=O)c1cnc(NCc2ccc3c(c2)OCO3)nc1-c1ccc(C#N)cc1` [compound 263]: the results for the IC50 in assay [1] and in assay [2] were 2 to 10 µM and > 10 µM, respectively.
Consider `Cc1cccc(-c2nc(NCc3ccc4c(c3)OCO4)ncc2C(=O)N2CCOCC2)c1` [compound 264], for which the IC50 in assay [1] and in assay [2] was > 10 µM throughout.
With `CCN(Cc1cccc(C)c1)C(=O)c1cnc(NCCCOC)nc1-c1ccc(C#N)cc1` [compound 265], the IC50 in assay [1] and in assay [2] was > 10 µM throughout.
Consider `CCN(Cc1cccc(C)c1)C(=O)c1cnc(N2CCOCC2)nc1-c1cccc(C)c1` [compound 266], for which the IC50 in assay [1] and in assay [2] was > 10 µM in each case.
For `CC(=O)N1CCN(c2ncc(C(=O)N3CCCCC3)c(-c3ccc(C#N)cc3)n2)CC1` [compound 267], the IC50 in assay [1] and in assay [2] was > 10 µM throughout.
`CCN(Cc1cccc(C)c1)C(=O)c1cnc(NCCCOC)nc1-c1ccccc1F` [compound 268]: the IC50 in assay [1] and in assay [2] was > 10 µM each time.
